Calls of active or inactive are those of the source. The calls are words filed in the database; no cut-off is given here.
Molecular target: Growth hormone secretagogue receptor type 1 (Rattus norvegicus) (UniProt O08725)
Assay: In vitro effective dose was measured for the growth hormone release in rat pituitary cells
Type: functional, cell-based
Conditions: Pituitary gland cell

Sequence of Growth hormone secretagogue receptor type 1 (Rattus norvegicus) (O08725 whole entry): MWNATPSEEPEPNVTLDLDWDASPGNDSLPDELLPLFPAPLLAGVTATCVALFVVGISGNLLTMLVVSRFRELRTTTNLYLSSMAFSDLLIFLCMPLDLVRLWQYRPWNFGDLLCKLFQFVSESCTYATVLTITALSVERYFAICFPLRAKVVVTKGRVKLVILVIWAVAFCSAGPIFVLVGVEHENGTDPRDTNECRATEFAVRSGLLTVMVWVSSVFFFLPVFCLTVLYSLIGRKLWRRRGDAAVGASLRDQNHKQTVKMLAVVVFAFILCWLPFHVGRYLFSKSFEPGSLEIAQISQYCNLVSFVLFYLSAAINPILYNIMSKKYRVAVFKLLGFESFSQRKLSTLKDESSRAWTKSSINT

ED50 [nM]	SMILES
100	C[C@@H](N)C(=O)N[C@@H]1CCc2ccccc2N(Cc2ccc(-c3ccccc3-c3nn[nH]n3)cc2)C1=O (stereo in doubt; 12)
2000	N[C@H](Cc1ccccc1)C(=O)N[C@@H]1CCc2ccccc2N(Cc2ccc(-c3ccccc3-c3nn[nH]n3)cc2)C1=O
30	CC(C)(N)C(=O)N[C@@H]1CCc2ccccc2N(Cc2ccc(-c3ccccc3-c3nn[nH]n3)cc2)C1=O
3000	CC(C)(N)CCC(=O)N[C@@H]1CCc2ccccc2N(Cc2ccc(-c3ccccc3-c3nn[nH]n3)cc2)C1=O
3000	CC(C)(CN)C(=O)N[C@@H]1CCc2ccccc2N(Cc2ccc(-c3ccccc3-c3nn[nH]n3)cc2)C1=O
1400	C[C@@H](N)C(=O)N[C@@H]1CCc2ccccc2N(Cc2ccc(-c3ccccc3-c3nn[nH]n3)cc2)C1=O (stereo in doubt; 11)
60	CC(C)(N)CC(=O)N[C@@H]1CCc2ccccc2N(Cc2ccc(-c3ccccc3-c3nn[nH]n3)cc2)C1=O
300	CC[C@@H](N)C(=O)N[C@@H]1CCc2ccccc2N(Cc2ccc(-c3ccccc3-c3nn[nH]n3)cc2)C1=O
9000	NCC(=O)N[C@@H]1CCc2ccccc2N(Cc2ccc(-c3ccccc3-c3nn[nH]n3)cc2)C1=O
9000	N[C@@H]1CCc2ccccc2N(Cc2ccc(-c3ccccc3-c3nn[nH]n3)cc2)C1=O
2000	NCCC(=O)N[C@@H]1CCc2ccccc2N(Cc2ccc(-c3ccccc3-c3nn[nH]n3)cc2)C1=O

Second part, the molecule before the results:

SMILES	ED50 [nM]
C[C@H](O)CNC(C)(C)CC(=O)N[C@@H]1CCc2ccccc2N(Cc2ccc(-c3ccccc3-c3nn[nH]n3)cc2)C1=O	7000
CC(C)(CC(=O)N[C@@H]1CCc2ccccc2N(Cc2ccc(-c3ccccc3-c3nn[nH]n3)cc2)C1=O)NCCN	230000
C[C@@H](O)CNC(C)(C)CC(=O)N[C@@H]1CCc2ccccc2N(Cc2ccc(-c3ccccc3-c3nn[nH]n3)cc2)C1=O	3000
CC(C)(CC(=O)N[C@@H]1CCc2ccccc2N(Cc2ccc(-c3ccccc3-c3nn[nH]n3)cc2)C1=O)NCc1ccccc1	65000
CCCNC(C)(C)CC(=O)N[C@@H]1CCc2ccccc2N(Cc2ccc(-c3ccccc3-c3nn[nH]n3)cc2)C1=O	50000
CC(C)CNC(C)(C)CC(=O)N[C@@H]1CCc2ccccc2N(Cc2ccc(-c3ccccc3-c3nn[nH]n3)cc2)C1=O	85000
CC(C)(CC(=O)N[C@@H]1CCc2ccccc2N(Cc2ccc(-c3ccccc3-c3nn[nH]n3)cc2)C1=O)NCCO	30000

Species on record: Rattus norvegicus
Assay: In vitro effective dose was measured for the growth hormone release in rat pituitary cells; Inactive at 20 ug/mL
Type: functional, cell-based
Conditions: Pituitary gland cell

SMILES	ED50
CC(=O)N[C@@H]1CCc2ccccc2N(Cc2ccc(-c3ccccc3-c3nn[nH]n3)cc2)C1=O	inactive
CC(=O)NC(C)(C)CC(=O)N[C@@H]1CCc2ccccc2N(Cc2ccc(-c3ccccc3-c3nn[nH]n3)cc2)C1=O	inactive
CC(C)(C)CC(=O)N[C@@H]1CCc2ccccc2N(Cc2ccc(-c3ccccc3-c3nn[nH]n3)cc2)C1=O	inactive
CC(C)(CC(=O)N[C@@H]1CCc2ccccc2N(Cc2ccc(-c3ccccc3-c3nn[nH]n3)cc2)C1=O)NC(=O)OC(C)(C)C	inactive

Tested on: not listed separately
Assay: pKa value was determined
Type: physicochemical
Conditions: not given

pKa	SMILES
9.1	C[C@@H](O)CNC(C)(C)CC(=O)N[C@@H]1CCc2ccccc2N(Cc2ccc(-c3ccccc3-c3nnn[nH]3)cc2)C1=O [L-692585]
7.9	CC(C)(N)C(=O)N[C@@H]1CCc2ccccc2N(Cc2ccc(-c3ccccc3-c3nn[nH]n3)cc2)C1=O
9.3	CC(C)(N)CC(=O)N[C@@H]1CCc2ccccc2N(Cc2ccc(-c3ccccc3-c3nnn[nH]3)cc2)C1=O
